Test results reported in article PMC8318001, “Terpene Synthase-b and Terpene Synthase-e/f Genes Produce Monoterpenes for Phalaenopsis bellina Floral Scent” (Frontiers in Plant Science, 2021).

Tests used:
Assay in all cases: GC-MS of reaction products
Format in all cases: biochemical
Conditions in all cases: 2.5 uM GDP, HEPES pH 7.4, 0.1 M KCl, 10 mM MgCl2, 10 mM DTT, 10% glycerol, 30 °C, 1 h
[1] = biological target: T1, PbTPS4 (Phalaenopsis bellina, UniProt A0A8F9U8Q1)
T1 construct: gene TPS4; ORF in pET-28b, His-tag at N- and C-termini, E. coli C41 (DE3) pLysS, TALON purified; tag removal not mentioned
T1 sequence (A0A8F9U8Q1 1-868): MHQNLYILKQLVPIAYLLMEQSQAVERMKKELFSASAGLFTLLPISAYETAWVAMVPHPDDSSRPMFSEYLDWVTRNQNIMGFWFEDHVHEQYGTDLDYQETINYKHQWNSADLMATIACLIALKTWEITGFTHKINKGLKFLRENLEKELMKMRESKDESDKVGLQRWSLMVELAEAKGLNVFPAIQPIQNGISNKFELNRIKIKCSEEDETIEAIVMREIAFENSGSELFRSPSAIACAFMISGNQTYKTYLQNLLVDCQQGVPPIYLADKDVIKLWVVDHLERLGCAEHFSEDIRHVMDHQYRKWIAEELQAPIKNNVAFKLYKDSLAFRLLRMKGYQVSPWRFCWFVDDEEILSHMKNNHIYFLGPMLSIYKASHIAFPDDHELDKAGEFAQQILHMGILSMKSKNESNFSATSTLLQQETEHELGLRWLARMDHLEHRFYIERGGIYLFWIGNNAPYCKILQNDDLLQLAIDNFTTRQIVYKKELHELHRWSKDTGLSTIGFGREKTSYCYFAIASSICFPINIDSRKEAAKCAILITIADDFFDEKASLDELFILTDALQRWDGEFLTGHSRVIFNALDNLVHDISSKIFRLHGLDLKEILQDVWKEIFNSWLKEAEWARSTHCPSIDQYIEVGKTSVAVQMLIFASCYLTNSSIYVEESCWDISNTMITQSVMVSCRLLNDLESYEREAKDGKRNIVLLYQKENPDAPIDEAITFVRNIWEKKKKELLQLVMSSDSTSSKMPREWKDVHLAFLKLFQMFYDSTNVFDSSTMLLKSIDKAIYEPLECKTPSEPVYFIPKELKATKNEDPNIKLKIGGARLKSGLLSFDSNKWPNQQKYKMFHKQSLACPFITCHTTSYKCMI

[2] = biological target: T2, PbTPS3 (Phalaenopsis bellina, UniProt A0A8F9U8Q4)
T2 construct: gene TPS3; ORF in pET-28b, His-tag at N- and C-termini, E. coli C41 (DE3) pLysS, TALON purified; tag removal not mentioned
T2 sequence (A0A8F9U8Q4 1-769): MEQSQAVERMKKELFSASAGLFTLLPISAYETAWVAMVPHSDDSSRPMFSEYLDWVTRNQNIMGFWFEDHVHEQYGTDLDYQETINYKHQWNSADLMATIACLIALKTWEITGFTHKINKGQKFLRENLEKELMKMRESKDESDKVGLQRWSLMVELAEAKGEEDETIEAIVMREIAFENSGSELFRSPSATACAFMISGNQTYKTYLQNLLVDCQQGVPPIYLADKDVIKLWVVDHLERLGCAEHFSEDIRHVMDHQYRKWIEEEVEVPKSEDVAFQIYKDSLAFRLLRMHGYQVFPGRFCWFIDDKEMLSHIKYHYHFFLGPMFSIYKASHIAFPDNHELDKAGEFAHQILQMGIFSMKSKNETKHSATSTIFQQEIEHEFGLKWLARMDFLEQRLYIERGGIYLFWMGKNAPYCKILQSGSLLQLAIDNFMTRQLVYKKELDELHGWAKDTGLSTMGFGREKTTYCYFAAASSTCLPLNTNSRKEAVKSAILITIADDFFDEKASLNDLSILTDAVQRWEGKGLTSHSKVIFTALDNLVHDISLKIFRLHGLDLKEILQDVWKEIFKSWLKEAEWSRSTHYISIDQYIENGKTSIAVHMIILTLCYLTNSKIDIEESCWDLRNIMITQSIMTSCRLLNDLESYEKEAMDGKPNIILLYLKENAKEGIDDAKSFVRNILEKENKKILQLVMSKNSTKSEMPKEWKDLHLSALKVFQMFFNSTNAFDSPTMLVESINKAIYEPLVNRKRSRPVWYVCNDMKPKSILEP

[3] = biological target: T3, PbTPS9 (Phalaenopsis bellina, UniProt A0A8F9U9F3)
T3 construct: gene TPS9; ORF in pET-28b, His-tag at N- and C-termini, E. coli C41 (DE3) pLysS, TALON purified; tag removal not mentioned
T3 sequence (A0A8F9U9F3 1-598 limits assumed): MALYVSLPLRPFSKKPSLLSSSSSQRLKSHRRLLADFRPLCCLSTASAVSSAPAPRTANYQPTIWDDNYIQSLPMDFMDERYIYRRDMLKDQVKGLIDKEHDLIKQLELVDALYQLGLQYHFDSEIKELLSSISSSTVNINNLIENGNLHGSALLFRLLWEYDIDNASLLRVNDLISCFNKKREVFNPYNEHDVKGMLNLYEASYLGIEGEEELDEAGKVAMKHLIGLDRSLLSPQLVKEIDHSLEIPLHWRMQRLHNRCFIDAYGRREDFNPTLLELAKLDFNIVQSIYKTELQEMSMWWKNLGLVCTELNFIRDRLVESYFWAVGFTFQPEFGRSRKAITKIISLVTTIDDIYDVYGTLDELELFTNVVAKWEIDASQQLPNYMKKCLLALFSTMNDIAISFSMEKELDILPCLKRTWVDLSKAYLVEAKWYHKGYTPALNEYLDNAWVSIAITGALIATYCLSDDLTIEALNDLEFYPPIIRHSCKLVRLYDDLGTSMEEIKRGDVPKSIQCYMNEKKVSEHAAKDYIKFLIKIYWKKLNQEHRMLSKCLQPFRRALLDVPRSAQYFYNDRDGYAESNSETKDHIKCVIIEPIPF

[4] = biological target: T4, PbTPS5 (Phalaenopsis bellina, UniProt A0A8F9UAD9)
T4 construct: gene TPS5; tag removal not mentioned
T4 sequence (A0A8F9UAD9 1-605 limits assumed): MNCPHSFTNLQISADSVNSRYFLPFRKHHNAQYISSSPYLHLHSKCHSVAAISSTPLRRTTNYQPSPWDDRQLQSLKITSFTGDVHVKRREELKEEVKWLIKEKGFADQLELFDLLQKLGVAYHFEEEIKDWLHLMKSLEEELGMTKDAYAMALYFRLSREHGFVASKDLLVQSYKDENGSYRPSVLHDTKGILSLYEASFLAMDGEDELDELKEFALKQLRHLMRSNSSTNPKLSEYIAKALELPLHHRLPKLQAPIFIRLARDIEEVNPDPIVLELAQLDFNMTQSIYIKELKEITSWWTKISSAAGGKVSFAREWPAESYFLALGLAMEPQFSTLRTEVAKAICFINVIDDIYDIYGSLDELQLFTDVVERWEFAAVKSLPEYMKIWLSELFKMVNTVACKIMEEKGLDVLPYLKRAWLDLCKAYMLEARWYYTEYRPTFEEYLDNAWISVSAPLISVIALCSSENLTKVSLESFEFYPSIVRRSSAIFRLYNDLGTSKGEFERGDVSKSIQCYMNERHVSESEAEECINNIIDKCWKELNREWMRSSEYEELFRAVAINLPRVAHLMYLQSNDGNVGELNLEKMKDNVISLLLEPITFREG

Q: For `CC(C)=CCC/C(C)=C/COP(=O)(O)OP(=O)(O)O` [GDP], which “GC-MS of reaction products” value [1] is on record?
A: PbTPS4 was a linalool synthase and used GDP as the substrate (Figure 6B)

Q: And the “GC-MS of reaction products” value [2]?
A: PbTPS3 was a dual enzyme as a linalool/(β)-cis-ocimene synthase (Figure 6A)

Q: What about the “GC-MS of reaction products” value [3] of the same compound?
A: The product of PbTPS9 was geraniol (Figure 5B)

Q: What about the “GC-MS of reaction products” value [4] of the same compound?
A: Geraniol was detected as the main product catalyzed by PbTPS5 (Figure 5A)
